Inconclusive results and toxic doses are left out.
System: P388 leukemia ip, CD2F1 mice, survival T/C
Assay: NCI In Vivo Anticancer Drug Screen. Data for tumor model P388 Leukemia (intraperitoneal) in CD2F1 (CDF1) mice
Conditions: endpoint: median survival time, higher = longer survival
Method in brief: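 Mice carrying the transplanted tumor received test compound or vehicle. Survival was recorded in each group, and the value is the treated-group measurement divided by that of the vehicle-treated control group.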

[1] = dose: 12.5 mg/kg/injection, schedule: Q04DX003 (ip), vehicle: saline with Tween-80
[2] = dose: 100.0 mg/kg/injection, schedule: Q04DX002 (ip), vehicle: saline
[3] = dose: 200.0 mg/kg/injection, schedule: Q04DX002 (ip), vehicle: saline
[4] = dose: 60.0 mg/kg/injection, schedule: Q01DX005 (ip), vehicle: saline with Tween-80
[5] = dose: 120.0 mg/kg/injection, schedule: Q01DX005 (ip), vehicle: saline with Tween-80
[6] = dose: 100.0 mg/kg/injection, schedule: Q01DX009 (ip), vehicle: saline with Tween-80
[7] = dose: 100.0 mg/kg/injection, schedule: Q04DX003 (ip), vehicle: saline with Tween-80
[8] = dose: 200.0 mg/kg/injection, schedule: Q01DX009 (ip), vehicle: saline with Tween-80
[9] = dose: 200.0 mg/kg/injection, schedule: Q04DX003 (ip), vehicle: saline with Tween-80
[10] = dose: 400.0 mg/kg/injection, schedule: Q01DX009 (ip), vehicle: saline with Tween-80
[11] = dose: 400.0 mg/kg/injection, schedule: Q04DX003 (ip), vehicle: saline with Tween-80
[12] = dose: 50.0 mg/kg/injection, schedule: Q01DX009 (ip), vehicle: saline with Tween-80

`C1CCC2C[N-]CCC2C1.C1CCC2C[N-]CCC2C1.C1CCC2C[N-]CCC2C1.C1CCC2C[N-]CCC2C1.[Cl][Rh][Cl]` (stereo unspecified) was tested, and the T/C (dose: 0.06 mg/kg/injection, schedule: Q03HX024 (ip), vehicle: saline) was 105 % of control, the T/C (dose: 0.13 mg/kg/injection, schedule: Q03HX008 (ip), vehicle: saline) was 113 % of control and the T/C (dose: 0.13 mg/kg/injection, schedule: Q03HX016 (ip), vehicle: saline) was 105 % of control. For the same compound, the T/C (dose: 0.13 mg/kg/injection, schedule: Q03HX024 (ip), vehicle: saline) was 100 % of control, the T/C (dose: 0.25 mg/kg/injection, schedule: Q01DX009 (ip), vehicle: saline) was 107 % of control and the T/C (dose: 0.25 mg/kg/injection, schedule: Q03HX008 (ip), vehicle: saline) was 118 % of control. For the same compound, the T/C (dose: 0.25 mg/kg/injection, schedule: Q03HX016 (ip), vehicle: saline) was 110 % of control, the T/C (dose: 0.25 mg/kg/injection, schedule: Q03HX024 (ip), vehicle: saline) was 108 % of control and the T/C (dose: 0.5 mg/kg/injection, schedule: Q01DX009 (ip), vehicle: saline) was 110 % of control. The T/C (dose: 0.5 mg/kg/injection, schedule: Q03HX008 (ip), vehicle: saline) was 123 % of control, the T/C (dose: 0.5 mg/kg/injection, schedule: Q03HX016 (ip), vehicle: saline) was 116 % of control and the T/C (dose: 0.5 mg/kg/injection, schedule: Q03HX024 (ip), vehicle: saline) was 117 % of control. For the same compound, the T/C (dose: 0.5 mg/kg/injection, schedule: Q04DX003 (ip), vehicle: saline) was 111 % of control, the T/C (dose: 1.0 mg/kg/injection, schedule: Q01DX001 (ip), vehicle: saline) was 118 % of control and the T/C (dose: 1.0 mg/kg/injection, schedule: Q03HX008 (ip), vehicle: saline) was 121 % of control. For the same compound, the T/C (dose: 1.0 mg/kg/injection, schedule: Q03HX016 (ip), vehicle: saline) was 115 % of control, the T/C (dose: 1.0 mg/kg/injection, schedule: Q04DX003 (ip), vehicle: saline) was 113 % of control and the T/C (dose: 1.0 mg/kg/injection, schedule: Q08DX002 (ip), vehicle: saline) was 114 % of control. For the same compound, the T/C (dose: 1.3 mg/kg/injection, schedule: Q01DX009 (ip), vehicle: water) was 111 % of control, the T/C (dose: 2.0 mg/kg/injection, schedule: Q01DX001 (ip), vehicle: saline) was 119 % of control and the T/C (dose: 2.0 mg/kg/injection, schedule: Q03HX008 (ip), vehicle: saline) was 119 % of control. For the same compound, the T/C (dose: 2.0 mg/kg/injection, schedule: Q04DX003 (ip), vehicle: saline) was 115 % of control, the T/C (dose: 2.0 mg/kg/injection, schedule: Q08DX002 (ip), vehicle: saline) was 121 % of control and the T/C (dose: 3.0 mg/kg/injection, schedule: Q01DX009 (ip), vehicle: water) was 111 % of control. For the same compound, the T/C (dose: 3.13 mg/kg/injection, schedule: Q04DX003 (ip), vehicle: saline with Tween-80) was 150 % of control, the T/C (dose: 4.0 mg/kg/injection, schedule: Q01DX001 (ip), vehicle: saline) was 118 % of control and the T/C (dose: 4.0 mg/kg/injection, schedule: Q03HX016 (ip), vehicle: saline) was 110 % of control. The T/C (dose: 4.0 mg/kg/injection, schedule: Q04DX003 (ip), vehicle: saline) was 124 % of control, the T/C (dose: 4.0 mg/kg/injection, schedule: Q08DX002 (ip), vehicle: saline) was 123 % of control and the T/C (dose: 6.25 mg/kg/injection, schedule: Q04DX003 (ip), vehicle: saline with Tween-80) was 150 % of control. For the same compound, the T/C (dose: 8.0 mg/kg/injection, schedule: Q08DX002 (ip), vehicle: saline) was 123 % of control and the T/C [1] was 90 % of control.
In the case of `O=C(O)CN(CCN1CC(=O)OC(=O)C1)CCN1CC(=O)OC(=O)C1`, the T/C (dose: 60.0 mg/kg/injection, schedule: Q01DX005 (ip), vehicle: saline) is reported as 102 % of control and the T/C (dose: 120.0 mg/kg/injection, schedule: Q01DX005 (ip), vehicle: saline) is reported as 97 % of control.
For `CN1Cc2c(c3c(n2C)CCCC3=O)C(O)C1` (stereo unspecified), the T/C (dose: 50.0 mg/kg/injection, schedule: Q04DX002 (ip), vehicle: saline) was 106 % of control, the T/C [2] was 100 % of control and the T/C [3] was 102 % of control.
`CCSc1cccc2nnc(C(C)(C)C)n12` was tested, and the T/C (dose: 100.0 mg/kg/injection, schedule: Q01DX001 (ip), vehicle: saline with Tween-80) was 98 % of control, the T/C (dose: 200.0 mg/kg/injection, schedule: Q01DX001 (ip), vehicle: saline with Tween-80) was 99 % of control and the T/C (dose: 400.0 mg/kg/injection, schedule: Q01DX001 (ip), vehicle: saline with Tween-80) was 97 % of control.
In the case of `CCN(CC)CCOC(=O)Nc1cc(C)cc(C)c1`, the T/C [4] is reported as 94 % of control and the T/C [5] is reported as 91 % of control.
`COc1ccc(/C=N/NC(N)=S)cc1` was tested, and the T/C [6] was 109 % of control, the T/C [7] was 100 % of control and the T/C [8] was 100 % of control. For the same compound, the T/C [9] was 113 % of control, the T/C [10] was 109 % of control and the T/C [11] was 109 % of control.
`CC1=NC2=CC=CC3=NC(C(Cl)(Cl)Cl)=NC(=N1)N23` was tested, and the T/C (dose: 60.0 mg/kg/injection, schedule: Q01DX005 (ip), vehicle: Klucel + Tween-80) was 102 % of control, the T/C (dose: 120.0 mg/kg/injection, schedule: Q01DX005 (ip), vehicle: Klucel + Tween-80) was 102 % of control and the T/C (dose: 240.0 mg/kg/injection, schedule: Q01DX005 (ip), vehicle: Klucel + Tween-80) was 102 % of control.
In the case of `c1ccc2nc(N3CCCCC3)c(N3CCCCCC3)nc2c1`, the T/C (dose: 50.0 mg/kg/injection, schedule: Q01DX005 (ip), vehicle: Klucel (hydroxypropylcellulose) (HPC)) is reported as 97 % of control, the T/C (dose: 100.0 mg/kg/injection, schedule: Q01DX005 (ip), vehicle: Klucel (hydroxypropylcellulose) (HPC)) is reported as 100 % of control and the T/C (dose: 200.0 mg/kg/injection, schedule: Q01DX005 (ip), vehicle: Klucel (hydroxypropylcellulose) (HPC)) is reported as 99 % of control.
With `CCN(CC)C(=O)c1c2nc3c(C(=O)N(CC)CC)ccc(C)c3oc-2c(C)c(=O)c1N` the T/C [4] was 98 % of control and the T/C [5] was 88 % of control.
`CC(=O)OCC1=COC(OC(=O)CC(C)(C)OC(C)=O)C2C1=CC(OC(=O)CC(C)C)[C@@]21CO1` (stereo partly specified) was tested, and the T/C (dose: 10.0 mg/kg/injection, schedule: Q01DX005 (ip), vehicle: saline) was 97 % of control, the T/C (dose: 20.0 mg/kg/injection, schedule: Q01DX005 (ip), vehicle: saline) was 93 % of control and the T/C (dose: 40.0 mg/kg/injection, schedule: Q01DX005 (ip), vehicle: saline) was 99 % of control.
`CCCCCC(=O)c1c(-c2ccc(C)cc2)cc(O)c(CCCC)c1-c1ccc(C)cc1` was tested, and the T/C (dose: 25.0 mg/kg/injection, schedule: Q01DX005 (ip), vehicle: saline with Tween-80) was 108 % of control, the T/C (dose: 50.0 mg/kg/injection, schedule: Q01DX005 (ip), vehicle: saline with Tween-80) was 97 % of control and the T/C (dose: 100.0 mg/kg/injection, schedule: Q01DX005 (ip), vehicle: saline with Tween-80) was 104 % of control.
`[O-]c1n[n+](Cc2ccc(Br)cc2)no1` was tested, and the T/C (dose: 50.0 mg/kg/injection, schedule: Q04DX003 (ip), vehicle: Klucel (hydroxypropylcellulose) (HPC)) was 96 % of control, the T/C (dose: 100.0 mg/kg/injection, schedule: Q04DX003 (ip), vehicle: Klucel (hydroxypropylcellulose) (HPC)) was 100 % of control and the T/C (dose: 200.0 mg/kg/injection, schedule: Q04DX003 (ip), vehicle: Klucel (hydroxypropylcellulose) (HPC)) was 110 % of control.
`O=C(/C=C/C(=O)Oc1cc(Cl)c(Cl)cc1Cl)Oc1cc(Cl)c(Cl)cc1Cl` was tested, and the T/C [7] was 96 % of control, the T/C [9] was 88 % of control and the T/C [11] was 97 % of control.
In the case of `CCc1nn2c(=O)nc(SC)nc2s1`, the T/C [1] is reported as 102 % of control, the T/C (dose: 25.0 mg/kg/injection, schedule: Q04DX003 (ip), vehicle: saline with Tween-80) is reported as 100 % of control and the T/C (dose: 50.0 mg/kg/injection, schedule: Q04DX003 (ip), vehicle: saline with Tween-80) is reported as 102 % of control.
For `c1cc[c]([Sn][c]2ccccc2)cc1`, the T/C (dose: 2.5 mg/kg/injection, schedule: Q01DX009 (ip), vehicle: saline) was 151 % of control.
In the case of `CN(C)c1nc(N(C)C)nc([N+]23CN4CN(CN(C4)C2)C3)n1`, the T/C [12] is reported as 114 % of control, the T/C [6] is reported as 108 % of control and the T/C [8] is reported as 114 % of control.
For `ClC1(c2ccccc2)c2ccc(Br)cc2-c2cc(Br)ccc21`, the T/C (dose: 65.0 mg/kg/injection, schedule: Q01DX009 (ip), vehicle: Klucel (hydroxypropylcellulose) (HPC)) was 109 % of control, the T/C [7] was 118 % of control and the T/C [8] was 109 % of control. For the same compound, the T/C [9] was 122 % of control, the T/C [10] was 113 % of control and the T/C [11] was 118 % of control.
In the case of `O=C(O)CCc1nc(-c2ccccc2-n2cccc2)no1`, the T/C [12] is reported as 96 % of control and the T/C [6] is reported as 102 % of control.
With `COc1ccc(C(=O)CCS(=O)O)cc1` the T/C [2] was 100 % of control, the T/C [3] was 100 % of control and the T/C (dose: 400.0 mg/kg/injection, schedule: Q04DX002 (ip), vehicle: saline) was 99 % of control.

Reference: PubChem BioAssay AID330 (DTP/NCI, 2004)
